Source: US20230124862A1, “BISMUTH THIOL COMPOUNDS AND COMPOSITIONS AND METHODS OF TREATING MICROBIAL CO-INFECTIONS” (Microbion Corporation, priority 2020, published 2023)
Values after ≈ are worked out from the molar mass of the structure shown. Read-outs that look alike come from different tables or passages of the source. Marks after values point to notes of the source that are not given here. Values belong to the compound of their own block, whether it stands above or below them.

Columns and labels:
Enterobacteriaceae [1] = assay: Broth microdilution MIC (Example 11); type: cell-based, E. coli, K. pneumoniae, Enterobacter cloacae
Escherichia coli [2] = assay: Broth microdilution MIC (Example 12); type: cell-based
Klebsiella pneumoniae = assay: Broth microdilution MIC (Example 12); type: cell-based
Pseudomonas aeruginosa [3] = assay: Broth microdilution MIC (Example 12); type: cell-based
Acinetobacter baumannii = assay: Broth microdilution MIC (Example 12); type: cell-based
[4] = tested on: vancomycin-intermediate Staphylococcus aureus (VISA); assay: Broth microdilution MIC (Example 12); type: cell-based
Enterobacteriaceae [5] = details: E. coli (MMX 102), QC; cited from earlier work
[6] = tested on: P. aeruginosa and A. baumannii; details: P. aeruginosa (MMX 103), QC; cited from earlier work
Escherichia coli [7] = details: E. coli ATCC 25922; CLSI established QC range; cited from earlier work
Pseudomonas aeruginosa [8] = details: P. aeruginosa ATCC 27853; CLSI established QC range; cited from earlier work
S. aureus ATCC 29213 [9] = details: CLSI established QC range; cited from earlier work
S. aureus ATCC 29213 [10] = assay: Broth microdilution MIC (Example 12), ATCC QC organism; details: ATCC QC organism (Table 102)
Candida krusei [11] = assay: Antifungal broth microdilution (Example 13); type: cell-based; details: C. krusei ATCC 6258, comparators, single value
Aspergillus spp. [12] = assay: Antifungal broth microdilution (Example 13); type: cell-based, A. niger, A. terreus, A. fumigatus, A. flavus
fungal pathogens = assay: Antifungal activity, NIH/NIAID sponsored study; type: cell-based; details: 100% endpoint
[13] = tested on: C. parapsilosis ATCC 22019; assay: Antifungal broth microdilution (Example 13), QC organism; type: cell-based, Candida parapsilosis; details: comparators, single value
Candida krusei [14] = details: C. krusei ATCC 6258, CLSI established QC range, cited from earlier work
Aspergillus spp. [15] = details: cited from earlier work
[16] = tested on: C. parapsilosis ATCC 22019; details: C. parapsilosis ATCC 22019, CLSI established QC range, cited from earlier work
E. coli ATCC 25922 = assay: MIC control strain; details: QC organism, Example 13
S. aureus ATCC 29213 [17] = assay: MIC control strain; details: QC organism, Example 13

- MIC (Enterobacteriaceae [1]; E. cloacae (MMX 5981), NDM-1, LVX-R, MEM-R, CAZ-R, GEN-R): 64 µg/mL (≈ 177 µM)
- MIC (Enterobacteriaceae [1]; E. coli (MMX 102), QC): 0.015 µg/mL (≈ 0.0415 µM)
- MIC (Enterobacteriaceae [1]; E. coli (MMX 5980), NDM-1, LVX-R, MEM-R, CAZ-R, GEN-R): 16 µg/mL (≈ 44.3 µM)
- MIC (Enterobacteriaceae [1]; E. coli (MMX 8423), ESBL, LVX-R, CAZ-R, GEN-R): 16 µg/mL (≈ 44.3 µM)
- MIC (Enterobacteriaceae [1]; E. coli (MMX 8424), ESBL, CAZ-R): 0.06 µg/mL (≈ 0.166 µM)
- MIC (Enterobacteriaceae [1]; E. coli (MMX 8425), ESBL, LVX-R, CAZ-R, GEN-R): 16 µg/mL (≈ 44.3 µM)
- MIC (Enterobacteriaceae [1]; K. pneumoniae (MMX 4622), KPC-2, MEM-R, CAZ-R): 1 µg/mL (≈ 2.77 µM)
- MIC (Enterobacteriaceae [1]; K. pneumoniae (MMX 4623), KPC-2, MEM-R, CAZ-R, GEN-R): 1 µg/mL (≈ 2.77 µM)
- MIC (Enterobacteriaceae [1]; K. pneumoniae (MMX 4653), KPC-3, LVX-R, MEM-R, CAZ-R): 64 µg/mL (≈ 177 µM)
- MIC (Enterobacteriaceae [1]; K. pneumoniae (MMX 4683), KPC-2, LVX-R, MEM-R, CAZ-R): >64 µg/mL
- MIC (Enterobacteriaceae [1]; K. pneumoniae (MMX 4684), ESBL, MEM-R): 0.03 µg/mL (≈ 0.083 µM)
- MIC (Enterobacteriaceae [1]; K. pneumoniae (MMX 4685), ESBL, LVX-R, MEM-R, CAZ-R): 32 µg/mL (≈ 88.6 µM)
- MIC (Enterobacteriaceae [1]; K. pneumoniae (MMX 4694), KPC-3, LVX-R, MEM-R, CAZ-R): 64 µg/mL (≈ 177 µM)
- MIC (Enterobacteriaceae [1]; K. pneumoniae (MMX 5979), NDM-1, LVX-R, MEM-R, CAZ-R, GEN-R): >64 µg/mL
- MIC (Escherichia coli [2]; E. coli ATCC 25922, ATCC QC organism (Table 102)): ≤0.008 µg/mL
- MIC (Escherichia coli [2]; E. coli ATCC 35218, ATCC QC organism (Table 102)): ≤0.008 µg/mL
- MIC (Escherichia coli [2]; E. coli ATCC 35218, ESBL): ≤0.008 µg/mL
- MIC (Escherichia coli [2]; E. coli ATCC BAA-2471, NDM): >8 µg/mL
- MIC (Escherichia coli [2]; E. coli CDC 114, ESBL/KPC): 4 µg/mL (≈ 11.1 µM)
- MIC (Escherichia coli [2]; E. coli CDC 118, ESBL/NDM): 8 µg/mL (≈ 22.1 µM)
- MIC (Escherichia coli [2]; E. coli CDC 435, NDM): >8 µg/mL
- MIC (Escherichia coli [2]; E. coli CDC 451, KPC): >8 µg/mL
- MIC (Escherichia coli [2]; E. coli CDC 503, ESBL/NDM): >8 µg/mL
- MIC (Escherichia coli [2]; E. coli MMX 5745, KPC): 8 µg/mL (≈ 22.1 µM)
- MIC (Escherichia coli [2]; E. coli MMX 5755, ESBL): 8 µg/mL (≈ 22.1 µM)
- MIC (Escherichia coli [2]; E. coli MMX 5756, ESBL): 4 µg/mL (≈ 11.1 µM)
- MIC (Escherichia coli [2]; E. coli MMX 5758, ESBL): 8 µg/mL (≈ 22.1 µM)
- MIC (Klebsiella pneumoniae; K. pneumoniae ATCC BAA-1705, ATCC QC organism (Table 102)): >8 µg/mL
- MIC (Klebsiella pneumoniae; K. pneumoniae ATCC BAA-1705, ESBL/KPC): >8 µg/mL
- MIC (Klebsiella pneumoniae; K. pneumoniae CDC 112, KPC): 4 µg/mL (≈ 11.1 µM)
- MIC (Klebsiella pneumoniae; K. pneumoniae CDC 113, ESBL/KPC): 4 µg/mL (≈ 11.1 µM)
- MIC (Klebsiella pneumoniae; K. pneumoniae CDC 115, ESBL/KPC): >8 µg/mL
- MIC (Klebsiella pneumoniae; K. pneumoniae CDC 120, ESBL/KPC): >8 µg/mL
- MIC (Klebsiella pneumoniae; K. pneumoniae CDC 126, ESBL/KPC): 0.015 µg/mL (≈ 0.0415 µM)
- MIC (Klebsiella pneumoniae; K. pneumoniae CDC 129, ESBL/KPC): >8 µg/mL
- MIC (Klebsiella pneumoniae; K. pneumoniae CDC 135, ESBL/VIM): >8 µg/mL
- MIC (Klebsiella pneumoniae; K. pneumoniae CDC 138, ESBL/NDM): >8 µg/mL
- MIC (Klebsiella pneumoniae; K. pneumoniae CDC 158, ESBL/NDM/OXA): 4 µg/mL (≈ 11.1 µM)
- MIC (Klebsiella pneumoniae; K. pneumoniae MMX 9029, ESBL): 0.12 µg/mL (≈ 0.332 µM)
- MIC (Pseudomonas aeruginosa [3]; P. aeruginosa ATCC 27853, ATCC QC organism (Table 102)): 0.5 µg/mL (≈ 1.38 µM)
- MIC (Pseudomonas aeruginosa [3]; P. aeruginosa CDC 230, VIM/OXA): 8 µg/mL (≈ 22.1 µM)
- MIC (Pseudomonas aeruginosa [3]; P. aeruginosa CDC 231, KPC/OXA): >8 µg/mL
- MIC (Pseudomonas aeruginosa [3]; P. aeruginosa CDC 241, IMP/OXA): 8 µg/mL (≈ 22.1 µM)
- MIC (Pseudomonas aeruginosa [3]; P. aeruginosa CDC 246, NDM/OXA): >8 µg/mL
- MIC (Pseudomonas aeruginosa [3]; P. aeruginosa CDC 250, NDM/OXA): >8 µg/mL
- MIC (Pseudomonas aeruginosa [3]; P. aeruginosa CDC 356, KPC): 0.12 µg/mL (≈ 0.332 µM)
- MIC (Pseudomonas aeruginosa [3]; P. aeruginosa CDC 439, IMP): 8 µg/mL (≈ 22.1 µM)
- MIC (Pseudomonas aeruginosa [3]; P. aeruginosa CDC 444, VIM): 8 µg/mL (≈ 22.1 µM)
- MIC (Pseudomonas aeruginosa [3]; P. aeruginosa CDC 457, VIM): >8 µg/mL
- MIC (Pseudomonas aeruginosa [3]; P. aeruginosa CDC 516, KPC/AmpC): 0.25 µg/mL (≈ 0.692 µM)
- MIC (Pseudomonas aeruginosa [3]; P. aeruginosa CDC 518, KPC/AmpC): >8 µg/mL
- MIC (Acinetobacter baumannii; A. baumannii CDC 273, ESBL/OXA): >8 µg/mL
- MIC (Acinetobacter baumannii; A. baumannii CDC 274, ESBL/OXA): 8 µg/mL (≈ 22.1 µM)
- MIC (Acinetobacter baumannii; A. baumannii CDC 275, ESBL/OXA): 4 µg/mL (≈ 11.1 µM)
- MIC (Acinetobacter baumannii; A. baumannii CDC 277, ESBL/OXA): 8 µg/mL (≈ 22.1 µM)
- MIC (Acinetobacter baumannii; A. baumannii CDC 284, ESBL/OXA): 8 µg/mL (≈ 22.1 µM)
- MIC (Acinetobacter baumannii; A. baumannii CDC 307, OXA): 8 µg/mL (≈ 22.1 µM)
- MIC (Acinetobacter baumannii; A. baumannii CDC 308, ESBL/OXA): 4 µg/mL (≈ 11.1 µM)
- MIC (Acinetobacter baumannii; A. baumannii CDC 311, OXA): 2 µg/mL (≈ 5.53 µM)
- MIC (Acinetobacter baumannii; A. baumannii CDC 312, OXA): 2 µg/mL (≈ 5.53 µM)
- MIC (Acinetobacter baumannii; A. baumannii CDC 313, ESBL/OXA): 2 µg/mL (≈ 5.53 µM)
- MIC (Acinetobacter baumannii; A. baumannii NCTC 13304, OXA): 1 µg/mL (≈ 2.77 µM)
- MIC ([4]; S. aureus NRS 1 (hVISA)): 4 µg/mL (≈ 11.1 µM)
- MIC ([4]; S. aureus NRS 2): 4 µg/mL (≈ 11.1 µM)
- MIC ([4]; S. aureus NRS 3): >8 µg/mL
- MIC ([4]; S. aureus NRS 4): 4 µg/mL (≈ 11.1 µM)
- MIC ([4]; S. aureus NRS 13): 0.12 µg/mL (≈ 0.332 µM)
- MIC ([4]; S. aureus NRS 18): 4 µg/mL (≈ 11.1 µM)
- MIC ([4]; S. aureus NRS 22): 8 µg/mL (≈ 22.1 µM)
- MIC ([4]; S. aureus NRS 24 (hVISA)): >8 µg/mL
- MIC ([4]; S. aureus NRS 27): 8 µg/mL (≈ 22.1 µM)
- MIC (S. aureus ATCC 29213 [10]): 0.06 µg/mL (≈ 0.166 µM)
Compound: C[C@H]1COc2c(N3CCN(C)CC3)c(F)cc3c(=O)c(C(=O)O)cn1c23 [LVX]
- CLSI Quality Control Range (MIC) (Enterobacteriaceae [5]): (0.008-0.06)^a μg/mL
- CLSI Quality Control Range (MIC) [6]: (0.5-4)^a
- QC range of MIC (Escherichia coli [7]): (0.008-0.06) μg/mL
- QC range of MIC (Pseudomonas aeruginosa [8]): (0.5-4) μg/mL
- QC range of MIC (S. aureus ATCC 29213 [9]): (0.06-0.5) μg/mL

Compound: C[C@@H](c1ncncc1F)[C@](O)(Cn1cncn1)c1ccc(F)cc1F [Voriconazole]
- MIC 24 hr (Candida krusei [11]; 24 hr): 0.12 µg/mL (≈ 0.344 µM)
- MIC 48 hr (Candida krusei [11]; 48 hr): 0.5 µg/mL (≈ 1.43 µM)
- MIC 24 hr (Aspergillus spp. [12]; A. flavus ATCC 204304): 0.12 µg/mL (≈ 0.344 µM)
- MIC 48 hr (Aspergillus spp. [12]; A. flavus ATCC 204304): 2 µg/mL (≈ 5.73 µM)
- MIC 24 hr (Aspergillus spp. [12]; A. fumigatus ATCC MYA-3626): 0.25 µg/mL (≈ 0.716 µM)
- MIC 48 hr (Aspergillus spp. [12]; A. fumigatus ATCC MYA-3626): 0.5 µg/mL (≈ 1.43 µM)
- MIC (fungal pathogens; Aspergillus fumigatus, read-out: Antifungal activity, MIC 100%, A. fumigatus AF1): 0.5 µg/mL (≈ 1.43 µM)
- MIC (fungal pathogens; Aspergillus fumigatus, read-out: Antifungal activity, MIC 100%, A. fumigatus AF2): 4 µg/mL (≈ 11.5 µM)
- MIC (fungal pathogens; Aspergillus fumigatus, read-out: Antifungal activity, MIC 100%, A. fumigatus AF3): 8 µg/mL (≈ 22.9 µM)
- MIC (fungal pathogens; Blastomyces dermatitidis, read-out: Antifungal activity, MIC 100%, B. dermatitidis BD1): 0.125 µg/mL (≈ 0.358 µM)
- MIC (fungal pathogens; Blastomyces dermatitidis, read-out: Antifungal activity, MIC 100%, B. dermatitidis BD2): ≤ 0.03 µg/mL
- MIC (fungal pathogens; Blastomyces dermatitidis, read-out: Antifungal activity, MIC 100%, B. dermatitidis BD3): 0.06 µg/mL (≈ 0.172 µM)
- MIC (fungal pathogens; Paecilomyces variotii, read-out: Antifungal activity, MIC 100%, P. variotii CLSI QC): 0.125 µg/mL (≈ 0.358 µM)
- MIC 24 hr ([13]; 24 hr): 0.12 µg/mL (≈ 0.344 µM)
- MIC 48 hr ([13]; 48 hr): 0.12 µg/mL (≈ 0.344 µM)
- QC Range 24 hr (Candida krusei [14]; 24 hr): 0.06-0.5
- QC Range 48 hr (Candida krusei [14]; 48 hr): 0.12-1
- QC Range 48 hr (Aspergillus spp. [15]; A. flavus ATCC 204304, CLSI established QC range): 0.5-4
- QC Range 48 hr (Aspergillus spp. [15]; A. fumigatus ATCC MYA-3626, CLSI established QC range): 0.25-1
- QC Range 24 hr ([16]; 24 hr): 0.015-0.12
- QC Range 48 hr ([16]; 48 hr): 0.03-0.25
- MIC 24 hr (E. coli ATCC 25922): >64
- MIC 24 hr (S. aureus ATCC 29213 [17]): >64
